In publication PMC12310023 (PLOS Neglected Tropical Diseases, 2025):
Read-outs that look alike come from different tables or passages of the source.

What was measured:
CYP3A4 = CYP3A4 (Homo sapiens, UniProt P08684); assay: in vitro; conditions: recombinant CYP3A4 supersomes
[1] = Liver microsome stability; conditions: monkey, pooled liver microsomes
[2] = Plasma protein binding, equilibrium dialysis; conditions: human
CYP2C19 = CYP2C19 (Homo sapiens, UniProt P33261); assay: CYP reaction phenotyping, recombinant supersomes
CYP2C9 [3] = biological target: T1, CYP2C9 (Homo sapiens, UniProt P11712); assay: biochemical
Hepatocyte stability [4] = conditions: dog
[5] = Stability of M2 hemiaminal in buffer; type: physicochemical; conditions: pH 6.8 phosphate buffer, ambient temperature
Cl- channel (GABA-gated) = assay: Cerep binding assay
5-HT2B = biological target: T2, 5-HT2B (Homo sapiens, UniProt P41595); assay: Cerep cellular and nuclear receptor functional assay; type: cell-based
T2 construct: Cerep (Eurofins, France)

CYP2C9 [6] = biological target: T1, CYP2C9; assay: in vitro; conditions: recombinant CYP2C9 supersomes
[7] = Plasma concentrations in calf model; type: in vivo; conditions: after BKI-1708 5 mg/kg BID
zebrafish embryos = assay: Zebrafish developmental safety assay; conditions: 4 days
HsSrC = HsSrC (Homo sapiens, UniProt P12931); assay: SrC enzyme inhibition; type: biochemical
From the text: […]. […] All other methods are specified in S1 File.

PKD3 = PKD3 (Homo sapiens, UniProt O94806); assay: Kinome profiling; type: biochemical
Hepatocyte stability [8] = conditions: human
CYP2B6 = biological target: T3, CYP2B6 (Homo sapiens, UniProt P20813); assay: CYP reaction phenotyping, recombinant supersomes
T3 sequence (P20813 1-491): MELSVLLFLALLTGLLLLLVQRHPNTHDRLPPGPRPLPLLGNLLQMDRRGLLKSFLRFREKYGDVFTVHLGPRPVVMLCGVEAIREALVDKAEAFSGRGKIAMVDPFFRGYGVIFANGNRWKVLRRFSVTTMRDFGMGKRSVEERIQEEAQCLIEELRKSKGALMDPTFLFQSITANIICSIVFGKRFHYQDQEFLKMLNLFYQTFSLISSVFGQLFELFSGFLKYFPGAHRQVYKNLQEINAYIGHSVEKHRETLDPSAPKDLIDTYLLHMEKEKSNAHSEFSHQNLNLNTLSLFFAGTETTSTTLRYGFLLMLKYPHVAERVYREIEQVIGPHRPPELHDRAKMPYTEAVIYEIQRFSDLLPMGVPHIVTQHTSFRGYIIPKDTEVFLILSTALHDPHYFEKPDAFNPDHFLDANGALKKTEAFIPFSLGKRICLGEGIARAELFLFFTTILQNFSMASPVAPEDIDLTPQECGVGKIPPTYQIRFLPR

CYP2D6 = CYP2D6 (Homo sapiens, UniProt P10635); assay: CYP reaction phenotyping, recombinant supersomes
C. hominis TU502 isolate = assay: Calibr high-content imaging Cryptosporidium panel; type: cell-based, Cryptosporidium hominis; conditions: Cryptosporidium hominis
[9] = Plasma protein binding, equilibrium dialysis; conditions: rat
PPARУ = biological target: T4, PPARУ (Homo sapiens, UniProt P37231); assay: Cerep cellular and nuclear receptor functional assay; type: cell-based
T4 construct: Cerep (Eurofins, France)
T4 sequence (P37231 1-505): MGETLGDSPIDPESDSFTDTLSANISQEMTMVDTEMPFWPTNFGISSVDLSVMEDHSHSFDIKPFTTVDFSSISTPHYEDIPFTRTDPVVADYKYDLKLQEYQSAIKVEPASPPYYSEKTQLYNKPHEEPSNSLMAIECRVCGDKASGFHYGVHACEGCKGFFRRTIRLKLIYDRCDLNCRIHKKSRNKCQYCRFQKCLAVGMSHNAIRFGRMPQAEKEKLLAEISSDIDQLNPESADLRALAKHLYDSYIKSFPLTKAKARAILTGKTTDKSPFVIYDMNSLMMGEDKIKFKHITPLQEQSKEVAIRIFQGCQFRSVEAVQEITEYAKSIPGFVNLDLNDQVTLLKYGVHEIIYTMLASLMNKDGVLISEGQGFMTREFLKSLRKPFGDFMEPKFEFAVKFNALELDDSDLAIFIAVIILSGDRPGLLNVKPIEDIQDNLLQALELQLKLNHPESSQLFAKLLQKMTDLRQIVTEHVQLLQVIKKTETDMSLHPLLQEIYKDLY

CYP2C9 [10] = biological target: T1, CYP2C9; assay: CYP reaction phenotyping, recombinant supersomes
[11] = liver microsomes and primary hepatocytes
[12] = read-out: IC50, antagonist effect
[13] = Balb/c, mouse, plasma, iv, 1 mg/kg
[14] = Balb/c, mouse, plasma, po, 30 mg/kg

T1 sequence (P11712 whole entry): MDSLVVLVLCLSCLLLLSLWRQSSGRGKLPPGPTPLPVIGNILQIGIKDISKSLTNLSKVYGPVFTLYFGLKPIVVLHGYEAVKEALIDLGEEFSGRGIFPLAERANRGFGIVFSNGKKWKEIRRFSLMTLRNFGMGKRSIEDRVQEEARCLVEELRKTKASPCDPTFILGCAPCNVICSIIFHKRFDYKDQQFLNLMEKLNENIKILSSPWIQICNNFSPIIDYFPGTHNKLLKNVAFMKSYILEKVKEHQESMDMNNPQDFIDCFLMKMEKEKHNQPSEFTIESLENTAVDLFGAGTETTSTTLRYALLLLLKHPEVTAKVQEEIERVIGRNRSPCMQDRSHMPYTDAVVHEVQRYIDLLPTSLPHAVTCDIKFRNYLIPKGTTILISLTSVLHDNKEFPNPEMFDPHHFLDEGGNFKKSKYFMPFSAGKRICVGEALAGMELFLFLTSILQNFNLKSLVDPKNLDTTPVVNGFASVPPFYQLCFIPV
Sequence of CYP2D6 (P10635 whole entry): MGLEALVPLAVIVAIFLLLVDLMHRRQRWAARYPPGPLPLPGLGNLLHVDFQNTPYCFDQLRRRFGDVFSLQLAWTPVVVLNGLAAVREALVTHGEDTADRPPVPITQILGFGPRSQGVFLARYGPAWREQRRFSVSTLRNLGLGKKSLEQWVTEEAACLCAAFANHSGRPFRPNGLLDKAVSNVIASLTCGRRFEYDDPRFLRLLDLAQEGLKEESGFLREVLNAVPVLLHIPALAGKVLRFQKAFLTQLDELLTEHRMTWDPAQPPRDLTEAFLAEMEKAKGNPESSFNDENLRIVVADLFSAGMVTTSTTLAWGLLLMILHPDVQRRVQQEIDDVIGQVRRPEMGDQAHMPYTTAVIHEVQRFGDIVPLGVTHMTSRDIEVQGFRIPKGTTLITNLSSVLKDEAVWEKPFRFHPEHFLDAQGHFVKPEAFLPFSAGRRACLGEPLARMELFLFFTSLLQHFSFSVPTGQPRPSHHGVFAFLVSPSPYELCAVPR
T2 sequence (P41595 whole entry): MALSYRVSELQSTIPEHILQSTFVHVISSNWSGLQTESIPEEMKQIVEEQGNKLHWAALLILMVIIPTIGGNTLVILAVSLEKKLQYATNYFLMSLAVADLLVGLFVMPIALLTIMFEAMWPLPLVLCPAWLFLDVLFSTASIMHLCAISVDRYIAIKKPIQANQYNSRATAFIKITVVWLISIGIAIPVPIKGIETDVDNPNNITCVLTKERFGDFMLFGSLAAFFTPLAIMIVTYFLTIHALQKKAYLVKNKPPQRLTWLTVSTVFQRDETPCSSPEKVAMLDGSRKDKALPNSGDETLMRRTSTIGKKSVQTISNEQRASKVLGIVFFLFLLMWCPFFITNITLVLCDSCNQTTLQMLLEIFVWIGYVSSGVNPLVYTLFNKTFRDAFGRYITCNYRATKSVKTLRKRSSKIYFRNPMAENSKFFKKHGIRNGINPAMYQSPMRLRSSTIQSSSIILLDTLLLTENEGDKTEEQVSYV
Sequence of CYP2C19 (P33261 whole entry): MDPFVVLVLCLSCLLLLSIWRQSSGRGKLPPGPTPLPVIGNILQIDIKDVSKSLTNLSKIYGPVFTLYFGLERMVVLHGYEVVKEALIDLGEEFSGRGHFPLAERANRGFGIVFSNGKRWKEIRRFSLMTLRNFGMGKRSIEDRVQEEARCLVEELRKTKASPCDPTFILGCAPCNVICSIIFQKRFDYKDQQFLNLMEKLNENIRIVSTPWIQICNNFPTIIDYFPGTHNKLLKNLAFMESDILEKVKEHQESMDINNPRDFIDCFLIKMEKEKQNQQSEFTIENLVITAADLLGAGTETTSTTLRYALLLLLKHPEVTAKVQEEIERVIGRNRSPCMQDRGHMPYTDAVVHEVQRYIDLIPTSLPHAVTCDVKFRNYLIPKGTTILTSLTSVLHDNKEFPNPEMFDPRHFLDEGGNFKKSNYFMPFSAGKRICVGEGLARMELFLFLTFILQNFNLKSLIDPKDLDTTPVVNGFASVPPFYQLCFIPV
Sequence of CYP3A4 (P08684 whole entry): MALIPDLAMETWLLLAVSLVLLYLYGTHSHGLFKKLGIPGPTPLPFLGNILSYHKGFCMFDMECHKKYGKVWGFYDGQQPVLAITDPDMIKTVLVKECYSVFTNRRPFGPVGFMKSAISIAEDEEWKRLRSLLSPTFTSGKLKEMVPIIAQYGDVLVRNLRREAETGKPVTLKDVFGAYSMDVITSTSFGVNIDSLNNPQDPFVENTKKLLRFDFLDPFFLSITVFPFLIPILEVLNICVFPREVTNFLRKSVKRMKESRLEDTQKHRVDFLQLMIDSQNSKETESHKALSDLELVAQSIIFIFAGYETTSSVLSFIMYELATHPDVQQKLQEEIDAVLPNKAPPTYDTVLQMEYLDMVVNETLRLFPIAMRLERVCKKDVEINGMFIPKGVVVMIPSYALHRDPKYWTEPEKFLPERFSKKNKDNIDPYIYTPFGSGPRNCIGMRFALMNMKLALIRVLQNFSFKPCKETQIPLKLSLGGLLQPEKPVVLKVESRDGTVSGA
Sequence of PKD3 (O94806 whole entry): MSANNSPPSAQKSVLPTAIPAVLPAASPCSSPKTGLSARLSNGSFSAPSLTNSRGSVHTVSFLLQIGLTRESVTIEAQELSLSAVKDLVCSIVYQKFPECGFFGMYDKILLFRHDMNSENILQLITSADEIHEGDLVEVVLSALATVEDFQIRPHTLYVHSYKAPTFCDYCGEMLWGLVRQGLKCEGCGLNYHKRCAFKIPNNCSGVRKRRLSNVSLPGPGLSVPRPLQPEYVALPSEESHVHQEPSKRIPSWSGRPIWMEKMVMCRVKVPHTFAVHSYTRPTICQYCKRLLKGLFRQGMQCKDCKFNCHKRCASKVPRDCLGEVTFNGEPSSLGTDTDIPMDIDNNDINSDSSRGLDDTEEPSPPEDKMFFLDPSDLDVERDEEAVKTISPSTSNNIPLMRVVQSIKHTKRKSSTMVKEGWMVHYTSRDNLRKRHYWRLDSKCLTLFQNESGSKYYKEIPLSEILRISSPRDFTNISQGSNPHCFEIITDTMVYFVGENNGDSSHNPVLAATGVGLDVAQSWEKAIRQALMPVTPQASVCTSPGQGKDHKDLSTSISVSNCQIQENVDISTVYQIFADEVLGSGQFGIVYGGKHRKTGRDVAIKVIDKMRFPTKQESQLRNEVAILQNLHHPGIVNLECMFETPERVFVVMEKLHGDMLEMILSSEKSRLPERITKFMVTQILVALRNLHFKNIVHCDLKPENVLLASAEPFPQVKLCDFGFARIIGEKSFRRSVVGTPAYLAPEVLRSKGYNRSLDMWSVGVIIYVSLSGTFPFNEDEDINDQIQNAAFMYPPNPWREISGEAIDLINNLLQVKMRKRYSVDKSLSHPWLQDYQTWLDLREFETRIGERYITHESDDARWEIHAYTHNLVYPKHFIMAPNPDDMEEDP
Sequence of HsSrC (P12931 whole entry): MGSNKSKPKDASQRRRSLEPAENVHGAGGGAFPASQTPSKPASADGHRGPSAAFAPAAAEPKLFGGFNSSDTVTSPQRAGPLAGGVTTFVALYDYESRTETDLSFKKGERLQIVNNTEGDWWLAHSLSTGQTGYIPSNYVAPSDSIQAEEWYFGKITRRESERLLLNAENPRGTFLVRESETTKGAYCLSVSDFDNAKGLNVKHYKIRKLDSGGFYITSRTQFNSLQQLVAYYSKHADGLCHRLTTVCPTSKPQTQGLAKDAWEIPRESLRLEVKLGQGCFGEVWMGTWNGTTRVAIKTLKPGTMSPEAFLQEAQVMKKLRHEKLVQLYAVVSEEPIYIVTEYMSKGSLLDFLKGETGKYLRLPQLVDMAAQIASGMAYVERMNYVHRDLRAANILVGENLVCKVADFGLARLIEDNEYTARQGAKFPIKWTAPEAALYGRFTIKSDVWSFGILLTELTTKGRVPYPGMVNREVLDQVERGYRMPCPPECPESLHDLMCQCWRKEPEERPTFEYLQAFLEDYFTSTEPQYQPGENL

**Q.** Which CLint scaled (CYP3A4) does the source give for `CC1(C)Cn2nc(-c3ccc4cc(OC5CC5)ccc4c3)c(C(N)=O)c2NC1O` (stereo not shown) [M2] here?
**A.** The CLint scaled was 5.02 mL/min/kg.

**Q.** And the half-life (CYP3A4)?
**A.** Its half-life is 49 min.

**Q.** And the CLint scaled [1]?
**A.** Its CLint scaled is 55 mL/min/kg.

**Q.** What about the half-life [1] of the same molecule?
**A.** Its half-life is 57 min.

**Q.** What about the microsomal CLint [1] of the same molecule?
**A.** Its microsomal CLint is 48.6 µL/min/mg.

**Q.** What about the fraction unbound [2] of the same molecule?
**A.** Its fraction unbound is 0.04.

**Q.** What about the “% contribution” value (CYP2C19) of the same molecule?
**A.** The value was 0.0%.

**Q.** What about the CLint (CYP2C19) of the same molecule?
**A.** Its CLint is under 0.029 µL/min/pmol.

**Q.** And the IC50 (CYP2C9 [3])?
**A.** Its IC50 is over 40 µM.

**Q.** And the “LM:hepatocyte CLint_scaled ratio” value (Hepatocyte stability [4]; [11])?
**A.** Its value is under 2.5.

**Q.** What about the CLint scaled (Hepatocyte stability [4]; primary hepatocytes) of the same molecule?
**A.** Its CLint scaled is 13.3 mL/min/kg.

**Q.** And the half-life (Hepatocyte stability [4]; primary hepatocytes)?
**A.** Its half-life is 411 min.

**Q.** What about the hepatocyte CLint (Hepatocyte stability [4]; primary hepatocytes) of the same molecule?
**A.** Its hepatocyte CLint is 3.4 µL/min/1e6 cells.

**Q.** And the time hemiaminal stable [5]?
**A.** The time hemiaminal stable was “up to 24 h”.

**Q.** What about the IC50 (Cl- channel (GABA-gated)) of the same molecule?
**A.** The IC50 was 17 µM.

**Q.** What about the “% inhibition of control specific binding” value (Cl- channel (GABA-gated); 10 μM, antagonist radioligand, mean) of the same molecule?
**A.** Its value is 50.6%.

**Q.** What about the agonist effect (5-HT2B) of the same molecule?
**A.** The agonist effect was “no effect up to 100 μM”.

**Q.** And the IC50 (5-HT2B; [12])?
**A.** The IC50 was 20 µM.

**Q.** What about the CLint scaled (CYP2C9 [6]) of the same molecule?
**A.** Its CLint scaled is under 1.78 mL/min/kg.

**Q.** What about the half-life (CYP2C9 [6]) of the same molecule?
**A.** Its half-life is over 240 min.

**Q.** What about the “average peak concentration of M2” value [7] of the same molecule?
**A.** Its value is 7.1 ± 4.4 µM.

**Q.** And the “concentration up to which zebrafish embryo development was not affected” value (zebrafish embryos)?
**A.** Its value is 20 µM.

**Q.** And the IC50 (HsSrC)?
**A.** Its IC50 is over 10 µM.

**Q.** What about the C0 (Mouse PK, Balb/c; [13]) of the same molecule?
**A.** The C0 was 4.2 ± 1.3 µM.

**Q.** What about the Vd (Mouse PK, Balb/c; [13]) of the same molecule?
**A.** Its Vd is 0.9 L/kg.

**Q.** And the clearance (Mouse PK, Balb/c; [13])?
**A.** Its clearance is 6.2 mL/min/kg.

**Q.** What about the half-life (Mouse PK, Balb/c; [13]) of the same molecule?
**A.** The half-life was 106 min.

**Q.** What about the Cmax (Mouse PK, Balb/c; [14]) of the same molecule?
**A.** Its Cmax is 13.1 ± 1.3 µM.

**Q.** What about the Tmax (Mouse PK, Balb/c; [14]) of the same molecule?
**A.** The Tmax was 1.5 h.

**Q.** And the bioavailability (Mouse PK, Balb/c; [14])?
**A.** Its bioavailability is 43%.

**Q.** What about the half-life (Mouse PK, Balb/c; [14]) of the same molecule?
**A.** The half-life was 184 min.

**Q.** What about the AUC0-inf (Mouse PK, Balb/c; M2 IV 1 mg/kg) of the same molecule?
**A.** Its AUC0-inf is 400 ± 42 µmol·min/L.

**Q.** What about the AUC0-inf (Mouse PK, Balb/c; M2 PO 30 mg/kg) of the same molecule?
**A.** The AUC0-inf was 5185 ± 1500 µmol·min/L.

**Q.** And the “M2 AUC0-inf” value (Mouse PK, Balb/c; after BKI-1708 IV 3 mg/kg)?
**A.** Its value is 988 ± 162 µmol·min/L.

**Q.** And the “M2 AUC0-inf” value (Mouse PK, Balb/c; after BKI-1708 PO 15 mg/kg)?
**A.** Its value is 6445 ± 654 µmol·min/L.

**Q.** And the IC50 (PKD3)?
**A.** The IC50 was 230 nM.

**Q.** What about the “LM:hepatocyte CLint_scaled ratio” value (Hepatocyte stability [8]; [11]) of the same molecule?
**A.** The value was under 2.5.

**Q.** What about the CLint scaled (Hepatocyte stability [8]; primary hepatocytes) of the same molecule?
**A.** The CLint scaled was 10 mL/min/kg.

**Q.** And the half-life (Hepatocyte stability [8]; primary hepatocytes)?
**A.** Its half-life is 376 min.

**Q.** And the hepatocyte CLint (Hepatocyte stability [8]; primary hepatocytes)?
**A.** Its hepatocyte CLint is 3.7 µL/min/1e6 cells.

**Q.** What about the “% contribution” value (CYP2B6) of the same molecule?
**A.** The value was 5.1%.

**Q.** What about the CLint (CYP2B6) of the same molecule?
**A.** Its CLint is 0.044 µL/min/pmol.

**Q.** What about the “% contribution” value (CYP2D6) of the same molecule?
**A.** The value was 0.0%.

**Q.** And the CLint (CYP2D6)?
**A.** The CLint was under 0.029 µL/min/pmol.

**Q.** And the EC50 (C. hominis TU502 isolate)?
**A.** The EC50 was 440 nM.

**Q.** What about the EC90 (C. hominis TU502 isolate) of the same molecule?
**A.** The EC90 was 1670 nM.

**Q.** And the EC50 (C. hominis TU502 isolate; read-out: TU502 C. hominis Count EC50, Replicate 1)?
**A.** The EC50 was 458 nM.

**Q.** What about the EC50 (C. hominis TU502 isolate; read-out: TU502 C. hominis Count EC50, Replicate 2) of the same molecule?
**A.** Its EC50 is 428 nM.

**Q.** And the EC90 (C. hominis TU502 isolate; read-out: TU502 C. hominis Count EC90, Replicate 1)?
**A.** Its EC90 is 1930 nM.

**Q.** What about the EC90 (C. hominis TU502 isolate; read-out: TU502 C. hominis Count EC90, Replicate 2) of the same molecule?
**A.** Its EC90 is 1410 nM.

**Q.** And the fraction unbound [9]?
**A.** Its fraction unbound is 0.06.

**Q.** And the agonist effect (PPARУ)?
**A.** Its agonist effect is “no effect up to 100 μM”.

**Q.** And the IC50 (PPARУ; [12])?
**A.** Its IC50 is over 100 µM.

**Q.** And the “% contribution” value (CYP2C9 [10])?
**A.** The value was 0.0%.

**Q.** And the CLint (CYP2C9 [10])?
**A.** The CLint was under 0.029 µL/min/pmol.
